Experimental data reported in patent publication US20090227620A1, “ANTI-INFLAMMATORY COMPOUNDS” (priority 2005, published 2009).

Legend:
[1] = tested on: irritant contact dermatitis elicited with tetradecanoylphorbol-13-acetate (TPA) on ears of mice; experiment: Anti-Inflammatory Test System (TPA-elicited irritant contact dermatitis, mouse ear); format: in vivo, strain NMRI; details: for anti-inflammatory activity (in words): mouse, in vivo; for inhibition in % (auricular weight, inflammatory swelling): topical 10 μl, 30 min before TPA, read 6 hours after
Experimental: The test sites on the inner surface of the right external ears of mice, e.g. strain NMRI, (8 per group) are treated with 10 μl of the dissolved test compound or with the vehicle (a 4:4:2 mixture of ethanol/acetone/dimethylacetamide) alone. The test compounds are applied at concentrations shown in the TEST RESULT TABLE. Thirty minutes after the treatment irritant contact dermatitis is elicited at the treated auricular sites with 10 μl 0.005% tetradecanoylphorbol-13-acetate (TPA). Skin inflammation is assessed 6 hours after the elicitation by determination of the auricular weights, as a measure of inflammatory swelling. The animals are killed and both ears are cut off and weighed. Inhibitory activity of test compounds is calculated from differences in right and left ears (internal controls) in mice treated with the test compounds compared with animals treated with the vehicle only. Results obtained are as set out in TEST RESULT TABLE below: In the TEST RESULT TABLE the concentrations of the compounds (in bold) used are indicated in micromol/litre. The values given in the TEST RESULT TABLE (in regular letters) are the inhibition in % determined according to the ANTI-INFLAMMATORY TEST SYSTEM used.

[2] = molecular target: T1, purified human steroid sulfatase (Homo sapiens, UniProt P08842); experiment: Assay of Human Steroid Sulfatase (4-methylumbelliferyl sulfate cleavage, fluorescence); details: reference compound, determined in parallel to test compounds
T1 sequence (P08842 22-583): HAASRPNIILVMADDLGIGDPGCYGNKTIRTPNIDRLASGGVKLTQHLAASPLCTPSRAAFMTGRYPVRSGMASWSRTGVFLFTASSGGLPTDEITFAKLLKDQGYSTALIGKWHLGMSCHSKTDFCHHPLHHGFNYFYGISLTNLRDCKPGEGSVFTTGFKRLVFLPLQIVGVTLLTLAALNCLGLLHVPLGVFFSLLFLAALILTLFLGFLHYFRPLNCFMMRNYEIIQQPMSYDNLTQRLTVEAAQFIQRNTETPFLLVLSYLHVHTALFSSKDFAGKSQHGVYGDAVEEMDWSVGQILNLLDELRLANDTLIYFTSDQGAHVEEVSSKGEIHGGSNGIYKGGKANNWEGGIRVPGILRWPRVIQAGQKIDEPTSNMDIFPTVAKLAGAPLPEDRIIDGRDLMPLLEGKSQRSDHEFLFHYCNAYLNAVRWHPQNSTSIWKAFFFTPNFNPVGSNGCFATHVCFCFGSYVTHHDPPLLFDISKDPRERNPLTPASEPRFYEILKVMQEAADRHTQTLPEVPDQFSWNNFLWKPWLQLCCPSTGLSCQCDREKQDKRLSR
Experimental: Human placenta is obtained freshly after delivery and stripped of membranes and connective tissues. For storage, the material is frozen at −70° C. After thawing, all further steps are carried out at 4° C., while pH values are adjusted at 20° C. 400 g of the tissue is homogenized in 1.2 l of buffer A (50 mM Tris-HCl, pH 7.4, 0.25 M sucrose). The homogenate obtained is centrifuged at 10,000×g for 45 minutes. The supernatant is set aside and the pellet obtained is re-homogenized in 500 ml of buffer A. After centrifugation, the two supernatants obtained are combined and subjected to ultracentrifugation (100,000×g, 1 hour). The pellet obtained is resuspended in buffer A and centrifugation is repeated. The pellet obtained is suspended in 50 ml of 50 mM Tris-HCl, pH 7.4 and stored at −20° C. until further work-up. After thawing, microsomes are collected by ultracentrifugation (as described above) and are suspended in 50 ml of buffer B (10 mM Tris-HCl, pH 7.0, 1 mM EDTA, 2 mM 2-mercaptoethanol, 1% Triton X-100, 0.1% aprotinin). After 1 hour on ice with gentle agitation, the suspension is centrifuged (100,000×g, 1 hour). The supernatant containing the enzyme activity is collected and the pH is adjusted to 8.0 with 1 M Tris. […]
Plates are incubated at 37° C. for 1 hour. […] Fluorescence intensity is determined in a Titertek Fluoroskan II instrument with λex=355 nm and λem=460 nm. […]

[3] = first value, column head printed 0 micromol/litre (alignment unclear)
[4] = second value, column head printed 0.1 micromol/litre (alignment unclear)
[5] = third value, column head printed 0.3 micromol/litre (alignment unclear)

Row | Compound | melting point [°C] | anti-inflammatory activity (in words) [1] | inhibition in % (auricular weight, inflammatory swelling) [1, 3] [%] | inhibition in % (auricular weight, inflammatory swelling) [1, 4] [%] | inhibition in % (auricular weight, inflammatory swelling) [1, 5] [%] | IC50 [2] [µM]
1 | NC(=O)c1ccc(C(F)(F)F)cc1N1CCC(CS(=O)(=O)NC(=O)c2cc(C(F)(F)F)cc(C(F)(F)F)c2)CC1 [Example 379] | 268 to 273 | – | – | – | – | –
2 | CC(C)(C)OC(=O)N1CC2CCCCC(C1)C2C(=O)NS(=O)(=O)c1cc(C(F)(F)F)cc(C(F)(F)F)c1 (stereo not shown) [Example 217, 10-(3,5-bis-trifluoromethyl-benzenesulfonylaminocarbonyl)-8-aza-bicyclo[4.3.1]decane-8-carboxylic acid tert-butyl ester] | – | anti-inflammatory activity | 20 | 36 | 45 | –
3 | CC(C)(C)OC(=O)N1CC2CCCCC(C1)C2C(=O)NS(=O)(=O)c1cc(C(F)(F)F)cc(C(F)(F)F)c1 (stereo not shown) [Example 218] | – | anti-inflammatory activity | 20 | 36 | 45 | –
4 | C[C@]12CC[C@@H]3c4ccc(OS(N)(=O)=O)cc4CC[C@H]3[C@@H]1CCC2=O [estrone sulfamate, estrone 3-O-sulfamate] | – | – | – | – | – | ~0.06
